The subject of assay [1] is MDA MB 468. The assay can be described thus: Cytotoxicity propidium iodide assay, MDA MB 468. The assay is classed as cell-based. Particulars: Homo sapiens; MDA MB 468 (breast), 48 hours treatment; read-out: IC50 Values in μM, C3b. As to the method:
(§1) The assay was designed as in the reference, Anticancer Drugs, 2002, 13, 1-8, the disclosure of which is incorporated herein by reference for the teaching of the assay.
(§2) Cells from cell lines (ATCC) as mentioned in the table given below were seeded at a density of 3000 cells/well in a white opaque 96-well plate. Following incubation at 37° C./5% CO2 for a period of 18-24 hours, the cells were treated with various concentrations (stock solution was prepared in DMSO and subsequent dilutions were made in media as per ATCC guidelines) of the compounds of the present invention for a period of 48 hours. At the end of treatment, the culture medium was discarded, the cells were washed with 1×PBS and 200 μL of […] propidium iodide was added to each well. The plates were frozen at 70° C. overnight. For analysis, the plates were warmed to RT, allowed to thaw and were read in PoleStar fluorimeter with the fluorescence setting. The percentage of viable cells in the non-treated set of wells was considered to be 100 and the percentage viability following treatment was calculated accordingly. IC50 values were calculated from graphs plotted using these percentages. IC50 values for certain compounds of present invention are depicted in Table 1 and % Inhibition of certain compounds of present invention are depicted in Table 2.

The test system of assay [2] is PC3. The assay can be described thus: Cytotoxicity propidium iodide assay, PC3. Particulars: Homo sapiens, PC-3; for IC50: PC3 (prostate), 48 hours treatment, read-out: IC50 Values in μM, C2a; for inhibition at 1 µM: PC3, 1 μM, 48 hours, read-out: % Inhibition at 1 μM, C2a. It counts as cell-based, human. The method, then: as §1, §2
Assay [3] concerns MCF7. As to the kind of experiment: Cytotoxicity propidium iodide assay, MCF7. Particulars: Homo sapiens; MCF7 (breast), 48 hours treatment; read-out: IC50 Values in μM, C3d. It counts as cell-based. As to the method: as §1, §2
Assay [4] has as its system BxPC3. The assay can be described thus: Cytotoxicity propidium iodide assay, BxPC3. It counts as cell-based. The note with it: Homo sapiens, BXPC-3; BxPC3 (pancreatic), 48 hours treatment; read-out: IC50 Values in μM, C4c. As to the method: as §1, §2
The subject of assay [5] is A2780. As to the kind of experiment: Cytotoxicity propidium iodide assay, A2780. It counts as cell-based. Particulars: Homo sapiens; for IC50: A2780 (ovarian), 48 hours treatment, read-out: IC50 Values in μM, C1a; for inhibition at 1 µM: A2780, 1 μM, 48 hours, read-out: % Inhibition at 1 μM, C1a. The method, then:
as §1, §2

For assay [6], the system named is MDA MB 231. The assay can be described thus: Cytotoxicity propidium iodide assay, MDA MB 231. The assay is classed as cell-based. The note with it: Homo sapiens; MDA MB 231 (breast), 48 hours treatment; read-out: IC50 Values in μM, C3a. As to the method: as §1
as §2, with “The plates were frozen at 70° C. overnight.” left out

Assay [7] deals with PANC 1. As to the kind of experiment: Cytotoxicity propidium iodide assay, PANC 1. The assay is classed as cell-based. The note with it: Homo sapiens; PANC 1 (pancreatic), 48 hours treatment; read-out: IC50 Values in μM, C4a. The method, then: as §1, §2
Assay [8] deals with BT 549. The assay can be described thus: Cytotoxicity propidium iodide assay, BT 549. The assay is classed as cell-based. Particulars: Homo sapiens; BT 549 (breast), 48 hours treatment; read-out: IC50 Values in μM, C3c. The method, then: as §1, §2
Assay [9] deals with AsPC 1. The assay can be described thus: Cytotoxicity propidium iodide assay, AsPC 1. The assay is classed as cell-based. Particulars: Homo sapiens, ASPC1; AsPC 1 (pancreatic), 48 hours treatment; read-out: IC50 Values in μM, C4b. The method, then: as §1
as §2, with “The plates were frozen at 70° C. overnight.” left out

For assay [10], the system named is K562. The assay can be described thus: Cytotoxicity propidium iodide assay, K562. The assay is classed as cell-based. The note with it: Homo sapiens; K562 (CML), 48 hours treatment; read-out: IC50 Values in μM, C6a. As to the method:
as §1, §2

The test system of assay [11] is PI3K/mTOR pathway. The assay can be described thus: Western blot analysis in A2780 ovarian cancer cell line. Particulars: A2780 cells treated for 1 hour; FIG. 1A-1E. It counts as cell-based. As to the method: Protocol for Western Blot Analysis
A2780 ovarian cancer cell line (ATCC) were grown to approximately 70% confluence in 100-mm tissue culture dishes and then treated for 1 hour with […] compounds of Example 2, 3, 5, 16, 19, 55 and 59. Total protein was extracted using cell lysis buffer (NaCl […], NP40 0.67%, Tris-Cl, pH 7.5, 67 mM) containing protease inhibitors and phosphatase inhibitors (Beta-glycerol phosphate 40 mM, DTT 1 mM, NaF 0.4 mM, Sodium-Orthovanadate 0.4 mM) at 4° C. for 1 hour. Cell lysates were then centrifuged at 2×10^4 g for 10 minutes at 4° C., and the protein concentration of the supernatant was quantified using the Bradford's method (BioRad, USA). For SDS-PAGE, 50 μg protein was loaded in SDS-PAGE, transferred to a polyvinylidene difluoride membrane (Bio-Rad, USA) and blocked with 5 mL buffer [5% skim milk and 0.1% Tween] for 1 hour 30 minutes. Membrane were probed with primary antibody (all primary antibodies were from cell signaling with 1:1000 in TBST solution) of respective protein at 4° C. overnight. Peroxidase-labeled anti-rabbit or anti-mouse antibodies (Santacruze, USA) were used as the secondary antibody. Actin and respective whole protein levels were used as the control for protein loading. Protein antigens were detected using Chemiluminescent Substrate (Thermo scientific, USA) and exposed on Kodak station.
(In western blotting, separated proteins are transferred to a membrane and probed.)

With `Cn1c(=O)n(CCN2CCOCC2)c2c3cc(-c4cccnc4)ccc3ncc21` [Example 68, 3-Methyl-1-(2-morpholinoethyl)-8-(pyridin-3-yl)-1H-imidazo[4,5-c]quinolin-2(3H)-one], the IC50 in assay [1] turned out to be 7 µM; in [2], 2.4 µM; in assay [3], 3 µM; in [4], 2.4 µM; in assay [5], 1.4 µM; in assay [6], 2.3 µM. The IC50 is 4.6 µM in assay [7], > 10 µM in [8] and 4.6 µM in assay [9].

In the case of `Cn1c(=O)n(-c2ccc(Cl)nc2C(F)(F)F)c2c3cc(-c4cccnc4)ccc3ncc21` [Example 63, 1-(6-Chloro-2-(trifluoromethyl)pyridin-3-yl)-3-methyl-8-(pyridin-3-yl)-1H-imidazo[4,5-c]quinolin-2 (3H)-one], the inhibition at 1 µM stood at 53% in assay [2] and 88% in assay [5]. Moreover, the IC50 in [3] was determined as 4 µM; in assay [10], 0.224 µM; in assay [8], 5.6 µM.

Turning to `Cn1c(=O)n(-c2ccc3ncccc3c2)c2c3cc(-c4cnc(N)c(C(F)(F)F)c4)ccc3ncc21` [Example 67, 8-(6-Amino-5-(trifluoromethyl)pyridin-3-yl)-3-methyl-1-(quinolin-6-yl)-1H-imidazo[4,5-c]quinolin-2 (3H)-one], the concentration for half-maximal inhibition (IC50) came out at 0.05 µM in [1]; 0.015 µM in [2]; 0.02 µM in assay [3]; 0.0085 µM in [4]; 0.006 µM in assay [5]; 0.012 µM in [6]. In addition, the figures for the concentration for half-maximal inhibition (IC50) in assay [7], in [8] and in assay [9] were 0.025 µM, 0.011 µM and 0.035 µM, respectively.

For the compound `Cn1c(=O)n(-c2ccc(C(F)(F)F)nc2)c2c3cc(-c4cnc5ccccc5c4)ccc3ncc21` [Example 54, 3-Methyl-8-(quinolin-3-yl)-1-(6-(trifluoromethyl)pyridin-3-yl)-1H-imidazo[4,5-c]quinolin-2(3H)-one], the half-inhibitory concentration (IC50) in [1] is 1.2 µM; in assay [2], 0.55 µM; in assay [3], 0.8 µM; in [4], 0.78 µM; in [5], 0.16 µM; in assay [6], 0.55 µM. Moreover, the IC50 worked out at 0.95 µM in assay [7], 1 µM in assay [8] and 0.55 µM in assay [9].

Consider `Cn1c(=O)n(-c2ccc(C(F)(F)F)nc2Cl)c2c3cc(-c4cnc(N)c(C(F)(F)F)c4)ccc3ncc21` [Example 59, 8-(6-Amino-5-(trifluoromethyl)pyridin-3-yl)-1-(2-chloro-6-(trifluoromethyl)pyridin-3-yl)-3-methyl-1H-imidazo[4,5-c]quinolin-2(3H)-one], for which the IC50 in assay [1] is 0.07 µM; in assay [2] it was 0.018 µM; in [3] it was 0.013 µM; in [4], < 0.01 µM; in assay [5], < 0.01 µM; in [6], < 0.01 µM. The results for the IC50 in [7], in [8] and in [9] were 0.017 µM, 0.04 µM and 0.042 µM, respectively. For the same compound, the “Akt, S6 and 4EBP1 phosphorylation (Western blot)” value in assay [11] was “inhibit Akt, S6 and 4EBP1 phosphorylation”.

Consider `CC(C)(C#N)c1ccc(-n2c(=O)n(CC#N)c3cnc4ccc(-c5cnc6ccccc6c5)cc4c32)cn1` [Example 17, 2-(5-(3-(Cyanomethyl)-2-oxo-8-(quinolin-3-yl)-2,3-dihydro-1H-imidazo[4,5-c]quinolin-1-yl)pyridin-2-yl)-2-methylpropanenitrile], for which the IC50 in [1] worked out at 0.45 µM; in assay [2] it was 0.17 µM; in [3], 0.25 µM; in assay [4] it was 0.085 µM; in assay [5], 0.065 µM; in assay [6], 0.17 µM. In addition, the IC50 in assay [7] was determined as 0.23 µM; in assay [8] it was 0.37 µM; in assay [9], 0.24 µM.

Regarding `Cn1c(=O)n(-c2ccc(C#N)nc2)c2c3cc(-c4cccnc4)ccc3ncc21` [Example 49, 5-(3-Methyl-2-oxo-8-(pyridin-3-yl)-2,3-dihydro-1H-imidazo[4,5-c]quinolin-1-yl)picolinonitrile], the 50% inhibitory concentration (IC50) in [1] turned out to be 0.065 µM; in assay [2], 0.017 µM; in assay [3] it was 0.03 µM; in [4], 0.04 µM; in assay [5] it was 0.009 µM; in assay [6], 0.016 µM. Also, the concentration for half-maximal inhibition (IC50) is 0.035 µM in assay [7], 0.3 µM in assay [8] and 0.025 µM in [9].

Turning to `Cn1c(=O)n(-c2ccc(C(C)(C)C#N)nc2)c2c3cc(-c4cncc(C(F)(F)F)c4)ccc3ncc21` [Example 4, 2-Methyl-2-(5-(3-methyl-2-oxo-8-(5-(trifluoromethyl)pyridin-3-yl)-2,3-dihydro-1H-imidazo[4,5-c]quinolin-1-yl)pyridin-2-yl)propanenitrile], the inhibition at 1 µM in assay [2] amounted to 72.6%; in [5] it was 89.2%.

In the case of `Cn1c(=O)n(-c2ccc(C(C)(C)C#N)nc2)c2c3cc(-c4ccc5ncccc5c4)ccc3ncc21` [Example 5, 2-Methyl-2-(5-(3-methyl-2-oxo-8-(quinolin-6-yl)-2,3-dihydro-1H-imidazo[4,5-c]quinolin-1-yl)pyridin-2-yl)propanenitrile], the IC50 worked out at 0.38 µM in [2] and 0.08 µM in assay [5]. In [11], the “Akt, S6 and 4EBP1 phosphorylation (Western blot)” value was “inhibit Akt, S6 and 4EBP1 phosphorylation”.

Consider `COc1ccc(-n2c(=O)n(C)c3cnc4ccc(-c5ccc(N(C)C)nc5)cc4c32)cn1` [Example 25, 8-(6-(Dimethylamino)pyridin-3-yl)-1-(6-methoxypyridin-3-yl)-3-methyl-1H-imidazo[4,5-c] quinolin-2(3H)-one], for which the results for the inhibition at 1 µM in [2] and in assay [5] were 69% and 83.4%, respectively.

In the case of `CC(C#N)n1c(=O)n(-c2ccc(C#N)nc2)c2c3cc(-c4cccnc4)ccc3ncc21` (centres unmarked) [Example 43, 5-(3-(1-Cyanoethyl)-2-oxo-8-(pyridin-3-yl)-2,3-dihydro-1H-imidazo[4,5-c]quinolin-1-yl)picolinonitrile], the inhibition at 1 µM in assay [2] was 13%; in [5] it was 8%.

With `Cn1c(=O)n(-c2ccc(C(F)(F)F)nc2)c2c3cc(-c4cccnc4)ccc3ncc21` [Example 53, 3-Methyl-8-(pyridin-3-yl)-1-(6-(trifluoromethyl)pyridin-3-yl)-1H-imidazo[4,5-c]quinolin-2(3H)-one], the concentration for half-maximal inhibition (IC50) in [2] was 0.75 µM; in [5] it was 0.55 µM.

As a reminder, the IC50 is the point on the concentration scale where inhibition reaches its midpoint. One may read the inhibition as how much of the control response was suppressed.

For the origin of these results see patent US20130310374A1, “Substituted Imidazoquinoline Derivatives” (PIRAMAL ENTERPRISES LIMITED`, priority 2010, published 2013).
